Data from paper PMC6429502, “Synthesis and AChE-Inhibitory Activity of New Benzimidazole Derivatives” (Molecules, 2019).
Entries after “also recorded” stand apart in the source; their conditions may differ. Like-named read-outs stand apart in the source and are kept apart here.

Assays:
Type in all cases: biochemical
AChE [1] = target: T1, AChE (Electrophorus electricus, UniProt O42275); assay: AChE inhibition, modified Ellman's method; conditions: for IC50: determined using 10^−3–10^−9 M concentrations
T1 sequence (O42275 24-633): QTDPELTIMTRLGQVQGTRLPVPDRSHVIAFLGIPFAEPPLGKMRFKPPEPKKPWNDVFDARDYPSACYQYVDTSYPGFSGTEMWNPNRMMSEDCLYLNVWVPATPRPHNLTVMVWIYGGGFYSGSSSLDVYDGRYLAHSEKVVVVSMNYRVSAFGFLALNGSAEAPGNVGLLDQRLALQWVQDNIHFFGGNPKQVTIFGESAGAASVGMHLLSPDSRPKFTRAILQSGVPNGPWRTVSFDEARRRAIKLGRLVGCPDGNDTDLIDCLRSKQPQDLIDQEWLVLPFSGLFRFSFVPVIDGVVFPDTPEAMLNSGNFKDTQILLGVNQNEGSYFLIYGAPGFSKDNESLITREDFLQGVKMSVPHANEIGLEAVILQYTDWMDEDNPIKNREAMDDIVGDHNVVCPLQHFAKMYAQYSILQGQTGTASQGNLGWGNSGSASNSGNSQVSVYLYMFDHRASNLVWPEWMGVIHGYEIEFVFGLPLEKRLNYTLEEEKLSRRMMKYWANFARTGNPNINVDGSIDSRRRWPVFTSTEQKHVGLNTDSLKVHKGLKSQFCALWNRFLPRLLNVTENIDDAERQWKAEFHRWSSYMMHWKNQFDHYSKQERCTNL

BChE = tested on: BChE
Procedure: New benzimidazole-triazole derivatives were designed, synthesized, and evaluated for their potential to inhibit AChE and BChE. First, all the synthesized compounds were tested at 10^−3 M and 10^−4 M concentrations.
The inhibitory activities of the compounds against AChE and BChE were determined in 96-well plates by modified Ellman’s method as defined in our previous studies. Donepezil and tacrine were used as reference drugs. A robotic system, Biotek Precision XS (Winooski, VT, USA), was used for all pipetting processes in the enzyme inhibition assay. Measurements of the percentage inhibition were carried out at 412 nm by using a BioTek-Synergy H1 microplate reader (Winooski, VT, USA). Inhibition potencies of synthesized compounds and IC50 of selected derivatives were calculated as reported previously.

AChE [2] = target: T1, AChE; assay: Enzyme kinetic studies of AChE inhibition (Lineweaver-Burk plots, secondary plots); conditions: 2 × IC50, IC50 and IC50/2, substrate 600 µM to 18.75 µM
Procedure: Enzyme kinetic studies were carried out in order to determine the mechanism of AChE inhibition. The type of inhibition was forecast using linear Lineweaver-Burk plots. […] The initial velocity measurements were recorded by using different substrate concentrations ranging from 600 µM to 18.75 µM for AChE enzyme. The secondary plots of the Km/Vmax (slope) versus varying concentrations were used to calculate Ki (intercept on the x-axis) values of compounds [35]. The graphical analyses of the steady-state inhibition data for AChE enzyme are shown in Figure 1 and Figure 2, respectively.
Reversible inhibition consists of the following subtypes: mixed-type, competitive, uncompetitive, or noncompetitive. These types of inhibition can be determined with the help of Lineweaver-Burk plots. […] Namely, both compounds can bind to the free enzyme or the enzyme-substrate complex. […] It is known that these interactions occur quickly and can be easily reversed. Therefore, the enzyme and inhibitor complex is rapidly degraded immediately prior to irreversible inhibition. […] As a result, enzyme kinetics studies have shown the biological importance of compounds 3d and 3h due to their mixed type forces, unlike irreversible enzyme inhibitors.
Enzyme kinetic studies were performed for compounds 3d and 3h in order to determine the inhibition type on AChE. […]

SMILES | % Inhibition AChE (AChE [1]; 10^−3 M) | % Inhibition of AChE (AChE [1]; 10^−5 M) | % Inhibition of AChE (AChE [1]; 10^−6 M) | % Inhibition of AChE (AChE [1]; 10^−7 M) | % Inhibition of AChE (AChE [1]; 10^−8 M) | % Inhibition of AChE (AChE [1]; 10^−9 M) | % Inhibition BChE (BChE; 10^−3 M) | % Inhibition BChE (BChE; 10^−4 M) | type of AChE inhibition (AChE [2]) | % Inhibition AChE (AChE [1]; 10^−4 M) | IC50 (AChE [1])
Cn1c(SCC(=O)c2ccc(O)c(O)c2)nnc1-c1ccc(-c2nc3cc(Cl)ccc3[nH]2)cc1 [3d, 2-(4-(4-Methyl-5-(2-(3,4-dihydroxyphenyl)-2-oxo-ethylthio)-4H-1,2,4-triazol-3yl)-phenyl)-5(6)-chloro-1H-benzimidazole] | 98.55 ± 1.17% | 87.26 ± 1.28% | 78.85 ± 1.19% | 67.18 ± 0.92% | 45.32 ± 0.82% | 15.75 ± 0.48% | 51.19 ± 0.99% | 38.12 ± 0.41% | mixed type inhibition; also recorded: reversible inhibitors; also recorded: reversible and mixed-type | – | –
Cn1c(SCC(=O)c2ccc(C#N)cc2)nnc1-c1ccc(-c2nc3cc(F)ccc3[nH]2)cc1 [3i, 2-(4-(4-Methyl-5-(2-(4-cyanophenyl)-2-oxo-ethylthio)-4H-1,2,4-triazol-3yl)-phenyl)-5(6)-fluoro-1H-benz-imidazole] | 61.22 ± 1.02% | – | – | – | – | – | 43.51 ± 0.78% | 18.49 ± 0.50% | – | 38.28 ± 0.67% | –
Cc1ccc(C(=O)CSc2nnc(-c3ccc(-c4nc5cc(Cl)ccc5[nH]4)cc3)n2C)cc1 [3c, 2-(4-(4-Methyl-5-(2-(4-methylphenyl)-2-oxo-ethylthio)-4H-1,2,4-triazol-3yl)-phenyl)-5(6)-chloro-1H-benz-imidazole] | 39.18 ± 0.71% | – | – | – | – | – | 26.11 ± 0.74% | 20.21 ± 0.61% | – | 17.89 ± 0.54% | –
Cn1c(SCC(=O)c2ccc(Br)cc2)nnc1-c1ccc(-c2nc3cc(F)ccc3[nH]2)cc1 [3j, 2-(4-(4-Methyl-5-(2-(4-bromophenyl)-2-oxo-ethylthio)-4H-1,2,4-triazol-3yl)-phenyl)-5(6)-fluoro-1H-benz-imidazole] | 48.51 ± 0.88% | – | – | – | – | – | 29.64 ± 0.87% | 21.44 ± 0.70% | – | 18.39 ± 0.60% | –
Cn1c(SCC(=O)c2ccc(Br)cc2)nnc1-c1ccc(-c2nc3cc(Cl)ccc3[nH]2)cc1 [3b, 2-(4-(4-Methyl-5-(2-(4-bromophenyl)-2-oxo-ethylthio)-4H-1,2,4-triazol-3yl)-phenyl)-5(6)-chloro-1H-benz-imidazole] | 44.20 ± 0.87% | – | – | – | – | – | 28.15 ± 0.97% | 18.42 ± 0.88% | – | 26.18 ± 0.63% | –
Cn1c(SCC(=O)c2ccc(O)c(O)c2)nnc1-c1ccc(-c2nc3cc(F)ccc3[nH]2)cc1 [3l, 2-(4-(4-Methyl-5-(2-(3,4-dihydroxyphenyl)-2-oxo-ethylthio)-4H-1,2,4-triazol-3yl)-phenyl)-5(6)-fluoro-1H-benzimidazole] | 94.58 ± 1.74% | 73.18 ± 1.17% | 68.20 ± 0.97% | 48.11 ± 0.61% | 32.29 ± 0.58% | 18.77 ± 0.37% | 55.43 ± 0.47% | 29.88 ± 0.38% | – | – | 0.169 ± 0.0072 µM
CCn1c(SCC(=O)c2ccc(C#N)cc2)nnc1-c1ccc(-c2nc3cc(Cl)ccc3[nH]2)cc1 [3e, 2-(4-(4-Ethyl-5-(2-(4-cyanophenyl)-2-oxo-ethylthio)-4H-1,2,4-triazol-3yl)-phenyl)-5(6)-chloro-1H-benz-imidazole] | 77.29 ± 1.06% | – | – | – | – | – | 38.22 ± 0.63% | 22.41 ± 0.47% | – | 41.22 ± 0.84% | –
CCn1c(SCC(=O)c2ccc(Br)cc2)nnc1-c1ccc(-c2nc3cc(Cl)ccc3[nH]2)cc1 [3f, 2-(4-(4-Ethyl-5-(2-(4-bromophenyl)-2-oxo-ethylthio)-4H-1,2,4-triazol-3yl)-phenyl)-5(6)-chloro-1H-benz-imidazole] | 47.22 ± 0.67% | – | – | – | – | – | 29.15 ± 0.59% | 17.88 ± 0.40% | – | 24.08 ± 0.48% | –
CCn1c(SCC(=O)c2ccc(C)cc2)nnc1-c1ccc(-c2nc3cc(Cl)ccc3[nH]2)cc1 [3g, 2-(4-(4-Ethyl-5-(2-(4-methylphenyl)-2-oxo-ethylthio)-4H-1,2,4-triazol-3yl)-phenyl)-5(6)-chloro-1H-benz-imidazole] | 37.20 ± 0.68% | – | – | – | – | – | 31.89 ± 0.99% | 24.75 ± 0.95% | – | 18.33 ± 0.38% | –
Cn1c(SCC(=O)c2ccc(C#N)cc2)nnc1-c1ccc(-c2nc3cc(Cl)ccc3[nH]2)cc1 [3a, 2-(4-(4-Methyl-5-(2-(4-cyanophenyl)-2-oxo-ethylthio)-4H-1,2,4-triazol-3yl)-phenyl)-5(6)-chloro-1H-benz-imidazole] | 68.18 ± 1.05% | – | – | – | – | – | 40.28 ± 0.98% | 25.13 ± 0.56% | – | 47.26 ± 0.62% | –
CCn1c(SCC(=O)c2ccc(O)c(O)c2)nnc1-c1ccc(-c2nc3cc(Cl)ccc3[nH]2)cc1 [3h, 2-(4-(4-Ethyl-5-(2-(3,4-dihydroxyphenyl)-2-oxo-ethylthio)-4H-1,2,4-triazol-3yl)-phenyl)-5(6)-chloro-1H-benzimidazole] | 98.25 ± 1.12% | 90.23 ± 1.03% | 81.25 ± 1.08% | 65.32 ± 0.97% | 44.28 ± 0.71% | 17.20 ± 0.58% | 61.26 ± 0.90% | 35.20 ± 0.42% | mixed type inhibition; also recorded: reversible inhibitors; also recorded: reversible and mixed-type | – | –
CCn1c(SCC(=O)c2ccc(C#N)cc2)nnc1-c1ccc(-c2nc3cc(F)ccc3[nH]2)cc1 [3m, 2-(4-(4-Ethyl-5-(2-(4-cyanophenyl)-2-oxo-ethylthio)-4H-1,2,4-triazol-3yl)-phenyl)-5(6)-fluoro-1H-benz-imidazole] | 59.03 ± 0.88% | – | – | – | – | – | 48.11 ± 0.38% | 20.66 ± 0.45% | – | 39.26 ± 0.46% | –
CCn1c(SCC(=O)c2ccc(C)cc2)nnc1-c1ccc(-c2nc3cc(F)ccc3[nH]2)cc1 [3o, 2-(4-(4-Ethyl-5-(2-(4-methylphenyl)-2-oxo-ethylthio)-4H-1,2,4-triazol-3yl)-phenyl)-5(6)-fluoro-1H-benz-imidazole] | 28.06 ± 0.33% | – | – | – | – | – | 25.99 ± 0.38% | 20.08 ± 0.46% | – | 19.22 ± 0.30% | –
Cc1ccc(C(=O)CSc2nnc(-c3ccc(-c4nc5cc(F)ccc5[nH]4)cc3)n2C)cc1 [3k, 2-(4-(4-Methyl-5-(2-(4-methylphenyl)-2-oxo-ethylthio)-4H-1,2,4-triazol-3yl)-phenyl)-5(6)-fluoro-1H-benz-imidazole] | 42.29 ± 0.71% | – | – | – | – | – | 36.17 ± 0.93% | 21.16 ± 0.97% | – | 27.88 ± 0.67% | –
CCn1c(SCC(=O)c2ccc(Br)cc2)nnc1-c1ccc(-c2nc3cc(F)ccc3[nH]2)cc1 [3n, 2-(4-(4-Ethyl-5-(2-(4-bromophenyl)-2-oxo-ethylthio)-4H-1,2,4-triazol-3yl)-phenyl)-5(6)-fluoro-1H-benz-imidazole] | 49.27 ± 0.55% | – | – | – | – | – | 27.10 ± 0.53% | 18.77 ± 0.42% | – | 30.21 ± 0.49% | –
CCn1c(SCC(=O)c2ccc(O)c(O)c2)nnc1-c1ccc(-c2nc3cc(F)ccc3[nH]2)cc1 [3p, 2-(4-(4-Ethyl-5-(2-(3,4-dihydroxyphenyl)-2-oxo-ethylthio)-4H-1,2,4-triazol-3yl)-phenyl)-5(6)-fluoro-1H-benzimidazole] | 87.26 ± 1.17% | 77.48 ± 1.98% | 71.62 ± 1.08% | 47.83 ± 0.97% | 39.33 ± 0.67% | 15.47 ± 0.64% | 53.19 ± 0.46% | 31.44 ± 0.38% | – | – | 0.14 ± 0.0051 µM
